Data on three compounds can be found in patent US20140100138A1, “MECHANICAL STRESS RESPONSE ANALYSIS OF CELLS AND TISSUES” (The Regents of The University of California, priority 2012, published 2014).

For test [1] the following is noted: 2-APB 10 μM, 30 μM or 100 μM; cited from earlier work.
Test [2] concerns HUVECs. Kind of test: 96-well plate screen of microtsunami-generated Ca2+ signaling, percentage of cells signaling 100-150 μm from μCB center. Format: cell-based, human. Conditions: 96-well screen; for effect on microtsunami-induced Ca2+ signaling in Ca2+ containing media: HHBSS+ with 2 g/L D-glucose, FIG. 9D columns 8-10; for effect on microtsunami-induced Ca2+ signaling in Ca2+ free media: HHBSS- with 3 mM EGTA, 2-APB 10-100 μM, PP2 10 μM, Verapamil 50 nM, FIG. 9D columns 1-5. The method, then:
96 well plates (Invitro-Scientific) were coated with fibronectin and P4 HUVECs were plated in each well. […] DMSO was also added as a control corresponding to the highest amount added from solution of the drugs, 0.3%. The first seven columns contained the previously used HHBSS- with 3 mM EGTA and the last five columns contained HHBSS+ supplemented with 2 g/L D-glucose.
The experiments were performed in a 96-well plate where twelve conditions, each with eight replicates, were tested for their potential effect on μTsunami generated Ca^2+ signaling.

In test [3] the test system is HUVECs. In words: Cell lysate / ATP control experiments for Ca2+ signaling with and without microtsunami exposure. Format: cell-based, human. The method, then: HUVECs grown in a tissue culture flask at full confluency were resuspended in standard HBSS- at a concentration of 1.5×10^7 cells/mL. Cell lysate solution was prepared by subjecting this solution to repeated freeze-thaw cycles at −80° C. and then sonicated on ice for 30 s.
Exposure to cell lysate alone was confirmed as not responsible for the observed Ca^2+ dynamics. Cells were dosed with a solution of cell lysate immediately following microtsunami exposure. In addition, cells were exposed to cell lysate alone. As positive controls, the Ca^2+ signaling response produced by ATP was measured with and without microtsunami exposure. As a negative control, Ca^2+ signaling without cell lysate, ATP, or microtsunami exposure was measured.
Probability of Ca2+ signaling produced by microtsunami exposure is plotted as a function of distance from the site of laser microbeam irradiation. Two control experiments were conducted to test whether the observed Ca^2+ was due to cellular exposure to cell lysate produced by the microtsunami. In the first, 150 μL of cell lysate was administered following a Ca^2+ signaling event generated by microtsunami exposure. […] Both experiments elicited an average signaling probability of <1%. […] The reduced ATP signaling probability following microtsunami exposure was due to cell lysis/necrosis produced by the microtsunami.

`NCCOB(c1ccccc1)c1ccccc1` [2-APB, 2-Aminoethoxydiphenylborate]: the “inhibition of Ca2+ release following stimulation using a bolus of ATP” value in test [1] was “dose-dependent inhibition of Ca^2+ release”. Also, in the test on HUVECs [2], the “effect on microtsunami-induced Ca2+ signaling in Ca2+ containing media” value is reported as “suppression of signaling” and the “effect on microtsunami-induced Ca2+ signaling in Ca2+ free media” value was “dose-dependent inhibitory effect”.

Regarding `Nc1ncnc2c1ncn2[C@@H]1O[C@H](COP(=O)(O)OP(=O)(O)OP(=O)(O)O)[C@@H](O)[C@H]1O` [ATP], the “average Ca2+ signaling probability, substance given following microtsunami exposure” value with HUVECs [3] (administered after microtsunami, ATP 50 μM, cell lysate 150 μL) is 60%. In addition, in the test on HUVECs [3] (no microtsunami, ATP 50 μM), the “average Ca2+ signaling probability, substance given without microtsunami exposure” value is listed as over 90%. For the same compound, the “Ca2+ signaling response (in words)” value with HUVECs [3] (with and without microtsunami exposure) is on record as “strong Ca^2+ signaling response”.

For `CC(C)(C)n1nc(-c2ccc(Cl)cc2)c2c(N)ncnc21` [PP2], in the test with HUVECs [2], the “effect on microtsunami-induced Ca2+ signaling in Ca2+ containing media” value is listed as “significant microtsunami-induced mechanosignaling was observed” and the “effect on microtsunami-induced Ca2+ signaling in Ca2+ free media” value is recorded as “neither PP2 nor Verapamil (FIG. 9D, columns 4, 5) affected Ca^2+ signaling”.
